# Data as given in patent US20200062719A1, “Application of Imidazopyridine Derivatives in Regenerative Medicine” (University of Heidelberg, priority 2018, published 2020).
# What was measured:
# neural stem cells = assay: Maintenance of neural stem cells, MTT viability; assay type: cell-based; details: starting from 1 nM
# Experimental: Neural stem cells were cultivated in SPN medium (DMEM-F12 Knockout medium containing 2% StemPro® NSC SFM, EGF (20 ng/mL) and FGF (20 ng/mL)) until cell confluence reached 80-90%. Acutase was used to get single cell suspension and washed with PBS. 20,000 cells/[…] were seeded into matrigel-coated plates using SPN medium with or without O4I3. The MTT assay was applied to determine cell viability.
# The self-renewal of multipotent neural stem cells was also tested with the compound of the current invention. Neural stem cells were cultivated in SPN medium with or without O4I3 at different final concentrations (FIG. 7). The MTT assay was applied to determine cell viability. Starting from a concentration of 1 nM O4I3 the viability of neural stem cells was increased in comparison to mock treated neural stem cells.
# human fibroblasts = assay: qRT-PCR of reprogramming associated genes in human fibroblasts; assay type: cell-based; details: human fibroblasts, O4I3 0.5 μM
# Experimental: Analyzing the effects of O4I3 on human fibroblasts, the activation of reprogramming associated genes, including an about 10-fold induction of Oct4, Nanog and Lin28, and an about 100-fold increase of Sox2 and E-Cadherin mRNA levels was detected. In particular, expression of several essential genes for reprogramming is equal to those in pluripotent stem cells, such as Esrrb, FGF2 and Sall4 (FIG. 12).
# Quantitative reverse-transcription real-time-PCR was performed using a Light Cycler 96 (Roche, Germany) following the manufacturer's protocol. Briefly, total RNA was isolated from cells using TRIzol (Qiagen, Germany) or NucleoSpin®RNA Plus (Macherey-Nagel, Germany). The same amount of RNA was used to reverse-transcriptional synthesize cDNA by using random primers ProtoScript® First Strand cDNA Synthesis Kit (NEB, Germany). qPCR was performed using the SYBR Green PCR master mix (qPCRBIO SyGreen Mix Lo-Rox, Nippon Genetics, Germany) and the primer pairs indicated below (MWG, Eurofins, Germany). Actin was used as an endogenous control. Data were normalized to the value of untreated cells showing the mean±SD of quadruplicates and are representative of at least three independent experiments.
# H3K4Me3 = assay: Global H3K4Me3 level in fibroblasts (immunocytochemistry, immunoblotting); assay type: cell-based, human
# From the text: The inventors investigated the transfection efficiency in HF1 and HF4 using the same episomal vector carrying cytomegalovirus (CMV)-driven GFP. The inventors could not observe a significant difference between two cell lines, as determined by FACS analysis. […] To study the epigenetic effects of O4I3 and its relevance to reprogramming, the inventors focused on two histone modifications at the promoter of OCT4, namely, H3K4Me3, known to be related to gene activation, and H3K27Me3, which indicates gene repression. […] The level of H3K27Me3 at the OCT4 promoter was minimally affected in our experiments (FIG. 17C). […] Immunoblotting confirmed a dose- and time-dependent increase of global H3K4Me3 expression in fibroblast, whereas H3K27Me3 remained mostly unaffected (FIG. 17E). In an in vitro methylation assay, O4I3 protected methylated H3K4 with an […] value of 20 nM (FIG. 17F). Trimethylation of H3K9 has been reported to block reprogramming by recruiting heterochromatin protein 1 to form heterochromatin at the core of pluripotency loci, which interferes with the hypermethylation of H3K4. […]
# Fibroblasts were treated with O4I3 0.5 μM for 2 days in the presence/absence of reprogramming transcription factors. […] The signal intensity was analyzed using ImageJ software as single cell level randomly selected from at least three independent experiments.
# Oct4 = assay: Luciferase reporter assay in NCCIT-Oct4 cells; assay type: cell-based, human
# Experimental: The ability of the lead compound to induce Oct4 at translational level was tested in a luciferase reporter cell line in human embryonic carcinoma NCCIT cells driven by Oct4 response elements (NCCIT-Oct4). The compound lead to a nearly 10-fold induction of Oct4 at 10 nM compared to untreated cells (FIG. 1B). Consequently, the lead compound was named “Oct4 inducing compound 3” (O4I3).
# Luciferase reporter assay was performed using Beatle Juice Kit (PJK, Germany) according to the manufacturer's instruction. NCCIT-Oct and NCCIT-Nanog reporter cells were plated into a 24-well plate (100,000 cells/well) for 24 h. Cells were treated with compounds as indicated and harvested with luciferase lysis buffer (25 mM Tris phosphate buffer pH=7.8, 4 mM EGTA, 1% Triton X-100, 10% glycerol and 2 mM fresh DTT, filtered through 0.45 μm sterile filter) at 37° C. for 15 min. The protein concentration was determined by Bradford assay (Sigma, Germany). 100 μL reaction mixture containing luciferin and ATP was added to 20 μL cell lysis in a white plate (Gibco, Germany), incubated for 5 min and measured by a luminometer plate-reader. The activity was determined as percent luminous intensity of treated cells over control cells from at least five-independent experiments.
structure (smiles),measurement,setting,value
"Cc1ccc(-c2cn3cc(C)ccc3n2)cc1 [O4I3, 6-methyl-2-(p-tolyl)imidazo[1,2-a]pyridine]",viability of neural stem cells in comparison to mock treated,neural stem cells,increased
same,increase of E-Cadherin mRNA levels,human fibroblasts,about 100 fold
same,increase of Sox2 mRNA levels,human fibroblasts,about 100 fold
same,induction of Lin28 mRNA,human fibroblasts,about 10 fold
same,induction of Nanog mRNA,human fibroblasts,about 10 fold
same,induction of Oct4 mRNA,human fibroblasts,about 10 fold
same,global level of H3K4Me3,H3K4Me3,increase of H3K4Me3
same,induction of Oct4 compared to untreated cells,"Oct4; 10 nM, NCCIT-Oct4 cells, 48 h",~10 fold
same,time course of Oct4 activation,Oct4; over 4 days,continuous and constant activation
